Consider 14 compounds from patent US5866540A, “Cyclic adhesion inhibitors” (Merck Patent Gesellschaft mit Beschrankter Haftung, priority 1995, dated 1999).

For one assay, the target named is αIIbβ3 (Homo sapiens, UniProt P05106+P08514). In words: Solid-phase receptor binding ELISA: competition with biotinylated fibrinogen on coated integrin receptor. The note with it: ligand biotinylated fibrinogen 1 μg/ml; receptor coated at 1 μg/ml; 3 h at 30° C.; triplicates. As to the method:
(§1) The effect was found by using the method of J. W. Smith, Z. M. Ruggei, T. J. Kunicki and D. A. Cheesh descibed in J. Biol. Chem. 265, 12 267-12 271 (1990).
(§2) Details of the method are as follows:
(§3) A ninety six well untreated flat bottom plate was coated with 100 μl/well of 1 μg/ml receptor (αIIβe; αVβ3) in coating buffer and incubated on a shaker at 4° C. overnight. The plate was washed 1× with binding buffer and then blocked with blocking buffer (100 μl/well for two hours at 30° C. After an additional washing with binding buffer, the biotinylated ligand and the competitor were added.
(§4) The ligand fibrinogen was used at a final concentration of 1 μg/ml. The competitor was added at increasing concentrations. Both ligand and competitor were added in volume of 50 μl/well at 2× of the final concentration diluted in binding buffer.
(§5) The plate was covered and incubated for three hours at 30° C. To remove unbound material the plate was washed 3× with binding buffer 100 μl/well.
(§6) Goat anti biotin antibody alkaline phosphatase conjugate (1:2000 dilution) in binding buffer was added (100 μl/well) and the plate was incubated for one hour at 30° C.
(§7) The plate was washed 3× with binding buffer, the substrate solution was added and developed in the dark at room temperature for 1-5 minutes.
(§8) The reaction was stopped by addition of 100 μl/well of 0.4M NaOH and read in the ELISA reader at 405 nm.
(§9) All points were run in triplicates.

A further assay addresses αvβ3 (Homo sapiens, UniProt P05106+P06756). Described as above. The following applies: ligand biotinylated fibrinogen 1 μg/ml; receptor coated at 1 μg/ml; 3 h at 30° C.; triplicates. As to the method: as §1, §2, §3, §4, §5, §6, §7, §8, §9

Where a SMILES comes first, the peptide text is derived from it. [ ]: non-standard residue; d: D form.

For orientation: IC50 means the concentration needed to halve the response being measured. A low value points to greater potency. With `CC(C)[C@@H]1NC(=O)[C@H](Cc2ccccc2)NC(=O)[C@H](CC(=O)O)NC(=O)CNC(=O)[C@@H](CCCNC(=N)N)NC(=O)[C@H](C)NC1=O` [cyclo(--D--Arg--Gly--Asp--Phe--Val--Ala), cyclo(-D-Arg-Gly-Asp-Phe-Val-Ala)] (cyclo([dR]GDFVA)), the figures for the half-inhibitory concentration (IC50) on αIIbβ3 and at αvβ3 were 22 µM and 4.5 µM, respectively.
In the same order, the values of `CC(C)[C@@H]1NC(=O)[C@H](Cc2ccccc2)NC(=O)[C@H](CC(=O)O)NC(=O)[C@@H](C)NC(=O)[C@H](CCCNC(=N)N)NC1=O` [cyclo(--Arg--D--Ala--Asp--Phe--Val), cyclo(-Arg-D-Ala-Asp-Phe-Val)] (cyclo(R[dA]DFV)) are over 100 µM and 52 µM.
In the same order, the values of `CC(C)C[C@@H]1NC(=O)[C@H](Cc2ccccc2)NC(=O)[C@H](CC(=O)O)NC(=O)CNC(=O)[C@H](CCCNC(=N)N)NC(=O)[C@@H](C)NC1=O` [cyclo(--Arg--Gly--Asp--Phe--Leu--D--Ala), cyclo(-Arg-Gly-Asp-Phe-Leu-D-Ala)] (cyclo(RGDFL[dA])) are 0.76 µM and 0.31 µM.
In the same order, the values of `N=C(N)NCCC[C@@H]1NC(=O)CNC(=O)[C@H]2CCCN2C(=O)[C@H](Cc2ccccc2)NC(=O)[C@H](CC(=O)O)NC(=O)CNC1=O` [cyclo(--Arg--Gly--Asp--Phe--D--Pro--Gly)] (cyclo(RGDF[dP]G)) are 1.5 µM and 1.06 µM.
On to `C[C@@H]1NC(=O)[C@@H]2CCCN2C(=O)[C@H](Cc2ccccc2)NC(=O)[C@H](CC(=O)O)NC(=O)CNC(=O)[C@H](CCCNC(=N)N)NC1=O` [cyclo(--Arg--Gly--Asp--Phe--Pro--Ala), cyclo(-Arg-Gly-Asp-Phe-Pro-Ala)] (cyclo(RGDFPA)), for which the 50% inhibitory concentration (IC50) at αIIbβ3 was found to be 0.62 µM; on αvβ3 it was 0.48 µM.
In the same order, the values of `CC(C)C[C@@H]1NC(=O)[C@@H](Cc2ccccc2)NC(=O)[C@H](CC(=O)O)NC(=O)CNC(=O)[C@H](CCCNC(=N)N)NC(=O)CNC1=O` [cyclo(--Arg--Gly--Asp--D--Phe--Leu--Gly), cyclo(-Arg-Gly-Asp-D-Phe-Leu-Gly)] (cyclo(GRGD[dF]L)) are 0.06 µM and 0.54 µM.
In the same order, the values of `C[C@@H]1NC(=O)[C@H]2CCCN2C(=O)[C@H](Cc2ccccc2)NC(=O)[C@H](CC(=O)O)NC(=O)CNC(=O)[C@H](CCCNC(=N)N)NC1=O` [cyclo(--Arg--Gly--Asp--Phe--D--Pro--Ala), cyclo(-Arg-Gly-Asp-Phe-D-Pro-Ala)] (cyclo(RGDF[dP]A)) are 0.74 µM and 0.37 µM.
Turning to `CC(C)[C@@H]1NC(=O)[C@@H](Cc2ccccc2)NC(=O)[C@H](CC(=O)O)NC(=O)CNC(=O)[C@H](CCCNC(=N)N)NC(=O)[C@H](C)NC1=O` [cyclo(--Arg--Gly--Asp--D--Phe--Val--Ala), cyclo(-Arg-Gly-Asp-D-Phe-Val-Ala)] (cyclo(RGD[dF]VA)), the IC50 on αIIbβ3 is 0.32 µM; at αvβ3, 0.9 µM.
On the same counts, the results for `CC(C)C[C@@H]1NC(=O)[C@@H](Cc2ccccc2)NC(=O)[C@H](CC(=O)O)NC(=O)CNC(=O)[C@H](CCCNC(=N)N)NC(=O)[C@H](C)NC1=O` [cyclo(--Arg--Gly--Asp--D--Phe--Leu--Ala), cyclo(-Arg-Gly-Asp-D-Phe-Leu-Ala)] (cyclo(ARGD[dF]L)) are 0.76 µM and 1.1 µM.
In the same order, the values of `CC(C)[C@@H]1NC(=O)[C@@H](Cc2ccccc2)NC(=O)[C@H](CC(=O)O)NC(=O)CNC(=O)[C@H](CCCNC(=N)N)NC(=O)CNC1=O` [cyclo(--Arg--Gly--Asp--D--Phe--Val--Gly), cyclo(-Arg-Gly-Asp-D-Phe-Val-Gly)] (cyclo(RGD[dF]VG)) are 0.13 µM and 0.62 µM.
In the same order, the values of `N=C(N)NCCC[C@@H]1NC(=O)CNC(=O)[C@@H]2CCCN2C(=O)[C@H](Cc2ccccc2)NC(=O)[C@H](CC(=O)O)NC(=O)CNC1=O` [cyclo(--Arg--Gly--Asp--Phe--Pro--Gly), cyclo(-Arg-Gly-Asp-Phe-Pro-Gly)] (cyclo(RGDFPG)) are 1.53 µM and 0.16 µM.
Turning to `CC(C)[C@@H]1NC(=O)[C@@H](Cc2ccccc2)NC(=O)[C@H](CC(=O)O)NC(=O)[C@H](C)NC(=O)[C@H](CCCN=C(N)N)NC1=O` [cyclo(--Arg--Ala--Asp--D--Phe--Val), cyclo(-Arg-Ala-Asp-D-Phe-Val)] (cyclo(AD[dF]VR)), the half-maximal inhibitory concentration (IC50) at αIIbβ3 is over 100 µM; on αvβ3, 0.77 µM.
Regarding `CC(C)[C@@H]1NC(=O)[C@H](Cc2ccccc2)NC(=O)[C@H](CC(=O)O)NC(=O)CNC(=O)[C@@H](CCCNC(=N)N)NC(=O)CNC1=O` [cyclo(--D--Arg--Gly--Asp--Phe--Val--Gly), cyclo(-D-Arg-Gly-Asp-Phe-Val-Gly)] (cyclo(G[dR]GDFV)), the figures for the half-inhibitory concentration (IC50) at αIIbβ3 and at αvβ3 were 20.5 µM and 1.52 µM, respectively.
On the same counts, the results for `CC(C)[C@@H]1NC(=O)[C@H](Cc2ccccc2)NC(=O)[C@H](CC(=O)O)NC(=O)CNC(=O)[C@H](CCCNC(=N)N)NC(=O)[C@@H](C)NC1=O` [cyclo(--Arg--Gly--Asp--Phe--Val--D--Ala), cyclo(-Arg-Gly-Asp-Phe-Val-D-Ala)] (cyclo(RGDFV[dA])) are 1.5 µM and 0.25 µM.
